Two compounds from US12611387B2, “Compound and composition for inducing neuroprotection” (REST THERAPEUTICS, priority 2020, dated 2026) can be followed below.

Test [1] has as its system lipid peroxidation. As to the kind of experiment: Lipid peroxidation in hippocampus, Aβ25-35 oligomer neuroprotection design. To be noted: 0.3 mg/Kg. The class given is in vivo, mice. The procedure:
The neuroprotective effect of the compounds, i.e. the ability thereof to protect cells from Aβ25-35 oligomer neurotoxicity and neurodegeneration, is also tested (FIG. 10). The test compounds are thus administered on the same day as the injection of the Aβ25-35 oligomers and are continued to be administered on a daily basis up to day 7 after the injection of the oligomers, at which time the mice are subjected to the YMT, PAT, MWT or ORT. The brain's anatomy is analysed and neuronal cells are counted by immunohistochemistry on mice sacrificed at D13. The biochemical analyses for the quantification of markers of oxidative stress and apoptosis were carried out at D16 on a group of mice that had been subjected to the WMT (FIG. 10). […]
The amount of hydroperoxide present in the samples was measured by quantifying the Fe^3+-xylenol orange complex: in an acidic medium, hydroperoxides oxidise the Fe^2+ to Fe^3+. The latter forms a coloured complex with xylenol orange, the formation whereof was quantified by measuring its absorbance at 580 nm.
After thawing, the hippocampi were homogenised in cold methanol (1/10 w/v), centrifuged at 1000 g for 5 min and the supernatant was collected. […] The absorbance at 580 nm (A5801) was measured and 10 μl of cumene hydroperoxide (CHP, 1 mM) was added and the entirety was incubated for 30 min at ambient temperature. […]

In test [2] the test system is GFAP. The experiment in a line: Immunohistochemical quantification of GFAP (astrogliosis). Format: in vivo, mice. To be noted: 0.3 mg/Kg i.p. The method, then:
(§1) The neuroprotective effect of the compounds, i.e. the ability thereof to protect cells from Aβ25-35 oligomer neurotoxicity and neurodegeneration, is also tested (FIG. 10). The test compounds are thus administered on the same day as the injection of the Aβ25-35 oligomers and are continued to be administered on a daily basis up to day 7 after the injection of the oligomers, at which time the mice are subjected to the YMT, PAT, MWT or ORT. The brain's anatomy is analysed and neuronal cells are counted by immunohistochemistry on mice sacrificed at D13. The biochemical analyses for the quantification of markers of oxidative stress and apoptosis were carried out at D16 on a group of mice that had been subjected to the WMT (FIG. 10).
(§2) They were previously anaesthetised by i.p. injection of 200 μL of a solution of ketamine (80 mg/Kg) and xylazine (10 mg/Kg), then the tissues were fixed by intracardiac perfusion of 50 mL of a saline solution followed by 50 mL of Antigenfix® fixative (Diapath). The samples were kept for a further 48 hours in the fixative at 4° C., and then the mouse brains were stored in a 30% sucrose solution in PBS, before being sliced.
(§3) Slices were taken of each area of the brain, in particular the cortex, the nucleus basalis magnocellularis and the hippocampus (i.e. between bregma +1.8 and bregma −2.8 according to the stereotaxic coordinates of the mouse brain, Paxinos et al., 2004). Serial coronal sections with a thickness of 25 μm were cut with a freezing microtome (Microm HM 450, Thermo Fisher) and stored at −20° C. in a cryoprotective solution. […]
(§4) Immunohistochemical labelling is carried out in a conventional manner. […] After rinsing with PBS, the sections were mounted in a mounting fluid (ProLong, ThermoFischer) and images of each section were taken with a confocal fluorescence microscope (Leica SPE) for different sub-regions of the hippocampus such as the stratum radiatum (Rad), the stratum moleculare (Mol), the polymorphic layer of the dentate gyrus (PoDG) and for the cortex, the lateral parietal association area (LPtA). […]

Test [3] deals with IL-6. The experiment in a line: IL-6 ELISA in hippocampus, Aβ25-35 oligomer neuroprotection design. The class given is in vivo. To be noted: 0.3 mg/Kg i.p., compared to intoxicated but untreated mice. The method, then:
as §1
Their brains were removed, and the hippocampi were isolated, weighed and frozen at −80° C. awaiting biochemical analysis.
Interleukin 6 (IL-6), a cytokine inflammatory marker, and the levels of the apoptosis markers Bcl2 and Bax proteins were measured in mouse hippocampi by the ELISA tests listed in Table 1 hereinbelow. Bcl2 is often referred to as an anti-apoptotic marker and Bax as a pro-apoptotic marker. […] After centrifugation (10,000 g, 5 min, 4° C.), the supernatants containing the markers to be measured were aliquoted and stored at −80° C. until the ELISA test was carried out according to the supplier's instructions. […]
On the technique in general: An ELISA detects its analyte on a solid surface through an enzyme-linked reagent.

Test [4] relates to Iba-1. The experiment in a line: Immunohistochemical quantification of Iba-1 (microgliosis). Format: in vivo, mice. To be noted: 0.3 mg/Kg i.p. The procedure:
as §1, §2, §3, §4

Setting [5] is: all brain areas tested (Rad, Mol, PoDG, LPtA).

SMILES strings stand for the structures.

In the case of `NC12CC3CC(C1)CC(CCF)(C3)C2` [FENM, 3-(2-fluoroethyl)adamantan-1-amine], the “level of lipid peroxidation in the hippocampus” value in test [1] is on record as “level equivalent to that of the control group”. In addition, the “GFAP labelling (astrocytic response)” value in test [2] (setting [5]) is “significantly decreases the astrocytic and microglial response in all of the brain areas tested”. The “IL-6 level in the hippocampus” value in test [3] is listed as “significantly lower than that of untreated, intoxicated mice”. The “Iba-1 labelling (microglial response)” value in test [4] (setting [5]) is “significantly decreases the astrocytic and microglial response in all of the brain areas tested”.
In the case of `CC12CC3CC(C)(C1)CC(N)(C3)C2` [memantine, 3,5-Dimethyl-1-adamantanamine, reference compound], the “level of lipid peroxidation in the hippocampus” value in test [1] is “did not significantly decrease the level of lipid peroxidation”. Further, in test [2] (Mol), the “GFAP labelling (astrogliosis)” value is “no effect on astrogliosis in the Mol”. Further, the “GFAP labelling (astrocytic response)” value in test [2] (PoDG area) is “positive effect in the PoDG area”. Also, the “IL-6 level in the hippocampus” value in test [3] is on record as “did not result in a significant decrease in IL-6 levels”. Also, the “Iba-1 labelling (microglial response)” value in test [4] (PoDG area) was “positive effect in the PoDG area”. The “Iba-1 labelling (microgliosis)” value in test [4] (cortex (LPtA)) is recorded as “no effect”.
